In patent US10241113B2, “CD28 expression during lenalidomide immune modulation” (H. LEE MOFFITT CANCER CENTER AND RESEARCH INSTITUTE, INC., priority 2012, dated 2019):

Columns and labels:
[1] = system: pCREB binding to the IL-2 promoter; experiment: Chromatin immunoprecipitation of pCREB at the IL-2 promoter; type: cell-based, human; conditions: anti-CD3 alone, 18 hours, 10 μM LEN
Experimental: Cells were isolated, fixed, lysed, and sonicated before chromatin-immunoprecipitation, as previously described (Smith M A, et al. J Biol Chem 2011 Mar. 11; 286(10):7893-904). Briefly, after stimulation and drug treatment, primary T-cells were treated with 1% formaldehyde for 10 min for cross-linking, followed by cell and nuclear lysis (50 mM Tris, pH 8.1, 10 mM EDTA, 1% SDS, 0.5 mM PMSF) and shearing. Chromatin was immunoprecipitated using 5 μg anti-phospho-CREB antibody (Millipore, Temecula, Calif. USA) and protein A/G beads (Santa Cruz Biotechnology Inc., Santa Cruz, Calif. USA). Immunoprecipitated chromatin was collected and washed sequentially with TSE buffer (20 mM Tris, pH 8.1, 50 mM NaCl, 2 mM EDTA, 0.1% SDS, 1.0% Triton X-100) and LiCl buffer (100 mM Tris, pH 8.1, 50 mM LiCl, 1% Nonidet P-40, 1% sodium deoxycholic acid, 1 mM EDTA). DNA was then eluted from the beads with 50 mM NaHCO3 containing 1% SDS and cross-linking reversed at 65° C. overnight followed by proteinase K treatment. DNA was then purified via QIAquick PCR purification kit (Qiagen, Germantown, Md. USA). For each sample, 4 μl DNA was amplified and measured using Sybr Green (Bio-Rad, Inc., Hercules, Calif. USA). Primers used to amplify the pCREB binding site-180 upstream of the transcription start site were: forward: 5′-[…]-3′ (SEQ ID NO:1) and reverse: 5′-[…]-3′ (SEQ ID NO:2).

CD28 [2] = experiment: CD28 surface expression by flow cytometry after anti-CD3 stimulation; type: cell-based, human; conditions: anti-CD3 alone, 72 hours
Experimental: Stimulation followed by measurement of CD28 surface expression was performed using anti-CD3 (10 μg/ml) alone or anti-CD3 (10 μg/ml) plus anti-CD28 (10 μg/ml) coupled 4.5 micron polystyrene polybeads (Polysciences, Inc, Warrington, Pa. USA). 1×10^5 beads were added to 2×10^5 cells in u-bottom 96-well plates, as previously described (Viola A, et al. Science 1999 283(5402):680-2). Cells were collected at 72 hours and 5 days, and CD28 surface expression was measured via flow cytometry on LSRII flow cytometer (BD Biosciences, San Jose, Calif. USA).

[3] = system: CD8^+CD28^+ and CD8^+CD28^− T-cells; experiment: BrdU proliferation of sorted CD8^+CD28^+ and CD8^+CD28^− T-cells; type: cell-based, human; conditions: 3 days, 10 μM LEN
Experimental: Proliferation was determined after in vitro activation by bromodeoxyuridine (BrdU) incorporation (BrdU flow kit, BD Biosciences, San Diego, Calif. USA). […] of BrdU was added during the last 45 min of T-cell stimulation. BrdU pulsed T-cells were harvested and stained with anti-CD4-PE and anti-CD8-PE-Cy-5 (BD Pharmingen, San Jose, Calif. USA). The cells were then fixed and permeabilized with BD Cytofix/Cytoperm buffer and incubated with DNase for 1 hour at 37° C. Cells were stained with anti-BrdU-FITC antibody before flow cytometry analysis on an LSRII flow cytometer (BD Biosciences, San Jose, Calif. USA). The percentage of BrdU positive cells from each population was analyzed using Flow-Jo Software (TreeStar Inc, Ashland, Oreg. USA.).
(§1) T-cells were purified from healthy donor buffy coats as previously described, and were stained with 4′,6-diamidino-2-phenylindole (DAPI) for viability, anti-CD8-APC-Cy7, CD4-PerCP-Cy5.5, and CD28-FITC antibodies (BD Pharmingen, San Jose, Calif.). Cells were then sorted into CD8^+CD28^+, CD8^+CD28^− populations via FACS Aria Cell Sorter (BD Pharmingen, San Jose, Calif.).

CD28 [4] = experiment: CD28 mRNA expression by RT-qPCR; type: cell-based, human; conditions: anti-CD3 stimulation, 18 or 24 hours
Experimental: (§2) Total RNA was extracted from purified T-cells using the RNeasy Mini Kit (Qiagen, Chatsworth, Calif. USA). […] Relative target gene expression was measured by qRT-PCR using 18S rRNA expression as a reference gene. Expression levels of target mRNA and 18S rRNA were evaluated with Taqman Probes obtained from Applied Biosystems (Carlsbad, Calif.). All samples for both target genes (IL-2 or CD28) and 18S rRNA were measured in triplicate. Relative mRNA expression level for each sample was calculated using the ΔΔCt method (Pfaffl M W. Nucleic Acids Res 2001 May 1; 29(9):e45).

purified human T-cells [5] = experiment: T-cell proliferation by BrdU incorporation, anti-CD3 stimulated; type: cell-based; conditions: increasing anti-CD3, 10 μM LEN
Description: (§3) Peripheral blood from buffy coats of healthy donors was obtained from the Southwest Florida Blood Services, St. Petersburg, Fla., for use as controls and for the purification of T-cells. T-cells were isolated from the buffy coats using RosetteSep® Human CD3^+ T-cell Enrichment Cocktail (StemCell Technologies, Vancouver, BC Canada) according to the manufacturer's protocol. B57BL6 mice were maintained at an animal facility in accordance with the University of South Florida Committee on Animal Care. All mice were adult age 8-12 weeks, obtained from The Jackson Laboratory, and maintained in a pathogen-free environment at Moffitt Cancer Center. Mouse-specific antibodies for T-cell activation were purchased from eBioscience (San Diego, Calif.) and human-specific antibodies were purchased from BD Biosciences (San Jose, Calif. USA). To activate the T-cell receptor (TCR), T-cells were stimulated with plate-bound anti-CD3 antibody (1 μg/ml or indicated concentration) coated onto flat-bottomed polystyrene tissue culture plates overnight at 4° C. […]
Proliferation was determined after in vitro activation by bromodeoxyuridine (BrdU) incorporation (BrdU flow kit, BD Biosciences, San Diego, Calif. USA). […] The percentage of BrdU positive cells from each population was analyzed using Flow-Jo Software (TreeStar Inc, Ashland, Oreg. USA.).

[6] = Storage of DMSO stock solutions; type: physicochemical; conditions: −20° C.
Description: (§4) Lenalidomide (Revlimid®) was provided by Celgene Corporation (Warren, N.J.). […] An equal volume of DMSO was used as a vehicle control.

CD28 [7] = experiment: CD28 internalization and re-expression by flow cytometry after co-stimulation; type: cell-based, human
Experimental: (§5) For siRNA knockdown (KD), T-cells were transfected with siCD28 or control siRNA (Santa Cruz Biotechnology, Inc, Santa Cruz, Calif. USA) using Amaxa Nucleofection technology (Lonza, Basel, Switzerland). 10×10^6 purified T-cells were mixed with either control or CD28 siRNA in 100 μl Human T-cell nucleofection solution, nucleofected, and then placed in Lymphocye Media (Lonza Basel, Switzerland). Cells were rested 24 hours before being stimulated with either plate bound anti-CD3, or anti-CD3^+CD28, antibodies in the presence or absence of LEN. CD28 surface expression was measured via flow cytometry at 48 and 72 hours after stimulation, at the same time supernatant was collected for ELISA analysis. Supernatant from stimulation experiments was frozen at −80° C. for analysis via Human IL-2 ELISA kit (eBioscience, San Diego, Calif. USA).

IL-2 gene = experiment: IL-2 mRNA expression by RT-qPCR; type: cell-based, human; conditions: anti-CD3 alone without anti-CD28, 18 hours
Description: as §3, with “USA).” for “USA). To activate the T-cell receptor (TCR), T-cells were stimulated with plate-bound anti-CD3 antibody (1 μg/ml or indicated concentration) coated onto flat-bottomed polystyrene tissue culture plates overnight at 4° C.”
as §2

CD28 [8] = experiment: Western blot for total CD28 protein expression; type: cell-based, human; conditions: anti-CD3 activation for 1, 2, 4, 8, 12, and 48 hours
CD28^+ T-cells = experiment: IL-2 ELISA after CD28 siRNA knockdown; type: cell-based, human; conditions: average
Experimental: as §5

MDS patients = experiment: Hematologic response of MDS patients versus pre-treatment CD28 expression; type: in vivo, human; conditions: 10 mg 21 of 28 days, 16 weeks, 7 NR and 4 R
Experimental: MDS patients (n=100) were consented at H. Lee Moffitt Cancer Center in Tampa, Fla. to participate in a peripheral blood collection protocol approved by the University of South Florida Institutional Review Board from 2004-2009. All patients signed University of South Florida Institutional Review Board approved informed consents for the collection of 40 ml of peripheral blood in heparin tubes. Samples were obtained from each patient at various times from 2004-2009 for immune monitoring studies and all cells were frozen in liquid nitrogen. Twenty-one of these patients had samples that were collected within 4 weeks prior to LEN treatment. LEN was administered at a dose of 10 mg for 21 out of a 28-day cycle for four cycles. All patients were evaluated for hematologic response after 16 weeks according to 2006 International Working Group Criteria (IWG). […]
Naïve and memory CD4 and CD8 T-cell subtypes in MDS patients and healthy donors were detected after surface staining with anti-CD3-PE-Cy7, anti-CD8-PerCP-Cy5.5, anti-CD45RA-FITC, anti-CD27-APC, anti-CD28-PE, and DAPI (all from BD Biosciences, San Jose, Calif. USA). […] Samples were run on an LSRII flow cytometer (BD Pharmingen) and populations were analyzed by FlowJo Software (Tree Star Inc., Ashland, Oreg. USA).

murine T-cells = experiment: IL-2 production by ELISA in murine T-cells; type: cell-based, B57BL6 mice
Description: (§6) Peripheral blood from buffy coats of healthy donors was obtained from the Southwest Florida Blood Services, St. Petersburg, Fla., for use as controls and for the purification of T-cells. T-cells were isolated from the buffy coats using RosetteSep® Human CD3^+ T-cell Enrichment Cocktail (StemCell Technologies, Vancouver, BC Canada) according to the manufacturer's protocol. B57BL6 mice were maintained at an animal facility in accordance with the University of South Florida Committee on Animal Care. All mice were adult age 8-12 weeks, obtained from The Jackson Laboratory, and maintained in a pathogen-free environment at Moffitt Cancer Center. Mouse-specific antibodies for T-cell activation were purchased from eBioscience (San Diego, Calif.) and human-specific antibodies were purchased from BD Biosciences (San Jose, Calif. USA). To activate the T-cell receptor (TCR), T-cells were stimulated with plate-bound anti-CD3 antibody (1 μg/ml or indicated concentration) coated onto flat-bottomed polystyrene tissue culture plates overnight at 4° C. Purified T-cells (1×10^6/ml) were added to the coated 96-well plates in a 200 μl volume for 48 hours at 37° C. In some instances, 1.0 μg/ml anti-CD28 was added for co-stimulation.
as §4

purified human T-cells [9] = experiment: IL-2 production by ELISA in stimulated T-cells; type: cell-based
Description: as §6, §4
as §5, with “Supernatant from stimulation experiments was frozen at −80° C. for analysis via Human IL-2 ELISA kit (eBioscience, San Diego, Calif. USA).” left out

CD8^+CD28^− T-cells = experiment: IL-2 ELISA of sorted CD8^+CD28^− T-cells; type: cell-based, human; conditions: anti-CD3 stimulation, 3 days, 10 μM LEN
Description: as §1, §5

[10] = species comparison; cited from earlier work

Nc1cccc2c1CN(C1CCC(=O)NC1=O)C2=O (stereo not drawn) [LEN, Lenalidomide]
binding of pCREB to the IL-2 promoter compared to DMSO [1]: increases binding of pCREB to the IL-2 promoter
CD28 surface expression (MFI) compared to DMSO (CD28 [2]): amplifies this anti-CD3 response
proliferation of CD8^+CD28^+ T-cells ([3]; anti-CD3 stimulation alone): increased proliferation of CD8^+CD28^+ T-cells in a dose-dependent fashion
proliferation of CD8^+CD28^− T-cells compared to DMSO ([3]; anti-CD3 stimulation): displayed no response to LEN
CD28 mRNA (CD28 [4]): did not significantly increase
proliferating cells (% BrdU positive) compared to DMSO (purified human T-cells [5]): stimulated more cells to proliferate in a dose dependent fashion
stability of stock solutions on storage [6]: variable loss in activity
CD28 re-expression (CD28 [7]; after anti-CD3 plus anti-CD28 stimulation): re-expression was slightly increased
ligand-induced CD28 internalization (CD28 [7]; anti-CD3 plus anti-CD28 stimulation): does not impair ligand-induced internalization
IL-2 mRNA compared to DMSO (IL-2 gene): dose-dependent increase in IL-2 mRNA
total protein expression of CD28 (CD28 [8]): did not significantly increase
LEN-induced IL-2 release, fold increase (CD28^+ T-cells; control siRNA): 7.5 fold
LEN-induced IL-2 release, fold increase (CD28^+ T-cells; siRNA-CD28 knockdown): 4.9 fold
hematologic response (IWG) in relation to pre-treatment CD28^+ T-cells (MDS patients): correlation between accumulation of CD28^− T-cells and resistance to LEN
IL-2 production in TCR-stimulated murine T-cells (murine T-cells; anti-CD3 alone): failed to induce IL-2 production
anti-CD28 signaling response (IL-2) in murine T-cells (murine T-cells; anti-CD3 plus anti-CD28): failed to intensify the anti-CD28 signaling response
IL-2 production with increasing concentrations of LEN (purified human T-cells [9]; fixed 5 μg/ml anti-CD3 alone): dose-dependency of IL-2 production
increase in IL-2 production (purified human T-cells [9]; human T-cells, anti-CD3 plus anti-CD28 co-stimulation, average, p<0.001): 6 fold
production of IL-2 compared to DMSO (purified human T-cells [9]; human T-cells, increasing anti-CD3, no anti-CD28, 10 μM LEN): increased the production of IL-2
elaboration of IL-2 in CD8^+CD28^− T-cells (CD8^+CD28^− T-cells): completely abolished in CD8^+CD28^− T-cells with no response to LEN

O=C1CCC(N2C(=O)c3ccccc3C2=O)C(=O)N1 (stereo not drawn) [Thalidomide]
teratogenic activity [10]: teratogenic activity only in humans, rabbits, chickens and zebrafish, but not in rodents
